Test results as given in article PMC9780108, “An intrinsically disordered antimicrobial peptide dendrimer from stereorandomized virtual screening” (Cell Reports. Physical Science, 2022).
Values after ≈ are worked out from the molar mass of the structure shown. Residues, ends and D or L forms follow the SMILES beside them.

How the values were obtained:
[1] = system: S. maltophilia; conditions: pH 7.4
[2] = system: P. aeruginosa PAO1; conditions: for MIC at pH 5.0, P. aeruginosa PAO1: PAO1, pH 5; for MIC at pH 7.4, P. aeruginosa PAO1: PAO1, pH 7.4; for MIC at pH 8.0, P. aeruginosa PAO1: PAO1, pH 8
[3] = system: B. cenocepacia; conditions: pH 7.4
[4] = system: P. aeruginosa ZEM9A; conditions: ZEM9A, pH 7.4
[5] = system: HEK293 cell line; format: cell-based; conditions: 48 h
Procedure, shortened: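 HEK293 cells seeded at 2 × 10³/well, incubated 48 h at 37 °C with serially diluted compounds (stock 2 mg/mL) in DMEM with 10% FBS. AlamarBlue added at 10% final for 3–5 h; fluorescence ex 560/em 590 nm, normalized to untreated cells.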

[6] = system: K. pneumoniae OXA-48; conditions: OXA-48, pH 7.4
[7] = system: P. aeruginosa ZEM-1A; conditions: ZEM-1A, pH 7.4
[8] = system: K. pneumoniae NCTC 418; conditions: for MIC at pH 5.0, K. pneumoniae NCTC 418: NCTC 418, pH 5; for MIC at pH 7.4, K. pneumoniae NCTC 418: NCTC 418, pH 7.4; for MIC at pH 8.0, K. pneumoniae NCTC 418: NCTC 418, pH 8
[9] = system: E. coli W3110; conditions: for MIC at pH 5.0, E. coli W3110: W3110, pH 5; for MIC at pH 7.4, E. coli W3110: W3110, pH 7.4; for MIC at pH 8.0, E. coli W3110: W3110, pH 8
[10] = system: P. aeruginosa PA14; conditions: PA14, pH 7.4
[11] = system: A. baumannii ATCC 19606; conditions: for MIC at pH 5.0, A. baumannii ATCC 19606: ATCC 19606, pH 5; for MIC at pH 7.4, A. baumannii ATCC 19606: ATCC 19606, pH 7.4; for MIC at pH 8.0, A. baumannii ATCC 19606: ATCC 19606, pH 8
[12] = system: S aureus COL (methicillin-resistant Staphylococcus aureus); conditions: for MIC at pH 5.0, S aureus COL: COL (methicillin-resistant, pH 5); for MIC at pH 7.4, S aureus COL: COL (methicillin-resistant, pH 7.4); for MIC at pH 8.0, S aureus COL: COL (methicillin-resistant, pH 8)
[13] = system: S. aureus Newman; conditions: Newman, pH 7.4
[14] = system: E. cloacae; conditions: pH 7.4

SMILES	MIC, S. maltophilia [1] [µg/mL]	MIC at pH 5.0, P. aeruginosa PAO1 [2] [μg/mL]	MIC at pH 7.4, P. aeruginosa PAO1 [2] [μg/mL]	MIC at pH 8.0, P. aeruginosa PAO1 [2]	MIC, B. cenocepacia [3] [µg/mL]	MIC, P. aeruginosa ZEM9A [4] [µg/mL]	IC50 HEK293 [5] [µg/mL]	MIC, K. pneumoniae OXA-48 [6] [µg/mL]	MIC, P. aeruginosa ZEM-1A [7] [µg/mL]	MIC at pH 5.0, K. pneumoniae NCTC 418 [8] [μg/mL]	MIC at pH 7.4, K. pneumoniae NCTC 418 [8] [μg/mL]	MIC at pH 8.0, K. pneumoniae NCTC 418 [8] [μg/mL]	MIC at pH 5.0, E. coli W3110 [9] [μg/mL]	MIC at pH 7.4, E. coli W3110 [9] [μg/mL]	MIC at pH 8.0, E. coli W3110 [9]	MIC, P. aeruginosa PA14 [10] [µg/mL]	MIC at pH 5.0, A. baumannii ATCC 19606 [11] [μg/mL]	MIC at pH 7.4, A. baumannii ATCC 19606 [11] [μg/mL]	MIC at pH 8.0, A. baumannii ATCC 19606 [11]	MIC at pH 5.0, S aureus COL [12] [μg/mL]	further results
CC(C)C[C@H](NC(=O)[C@H](CCCCN)NC(=O)[C@H](CCCCNC(=O)[C@H](CC(C)C)NC(=O)[C@H](CCCCN)NC(=O)[C@H](CCCCNC(=O)[C@H](CC(C)C)NC(=O)[C@H](CCCCN)NC(=O)[C@H](CCCCNC(=O)[C@H](CC(C)C)NC(=O)[C@@H](N)CCCCN)NC(=O)[C@H](CC(C)C)NC(=O)[C@@H](N)CCCCN)NC(=O)[C@H](CC(C)C)NC(=O)[C@H](CCCCN)NC(=O)[C@H](CCCCNC(=O)[C@H](CC(C)C)NC(=O)[C@@H](N)CCCCN)NC(=O)[C@H](CC(C)C)NC(=O)[C@@H](N)CCCCN)NC(=O)[C@H](CC(C)C)NC(=O)[C@H](CCCCN)NC(=O)[C@H](CCCCNC(=O)[C@H](CC(C)C)NC(=O)[C@H](CCCCN)NC(=O)[C@H](CCCCNC(=O)[C@H](CC(C)C)NC(=O)[C@@H](N)CCCCN)NC(=O)[C@H](CC(C)C)NC(=O)[C@@H](N)CCCCN)NC(=O)[C@H](CC(C)C)NC(=O)[C@H](CCCCN)NC(=O)[C@H](CCCCNC(=O)[C@H](CC(C)C)NC(=O)[C@@H](N)CCCCN)NC(=O)[C@H](CC(C)C)NC(=O)[C@@H](N)CCCCN)C(N)=O [L-G3KL, reference compound] (HELM PEPTIDE1{K.L.K.K.L.K.K.L.K.K.L.[am]}|PEPTIDE2{K.L}|PEPTIDE3{K.L.K.K.L.K.K.L}|PEPTIDE4{K.L}|PEPTIDE5{K.L.K.K.L}|PEPTIDE6{K.L}|PEPTIDE7{K.L.K.K.L}|PEPTIDE8{K.L}$PEPTIDE1,PEPTIDE2,3:R3-2:R2|PEPTIDE3,PEPTIDE4,3:R3-2:R2|PEPTIDE5,PEPTIDE6,3:R3-2:R2|PEPTIDE7,PEPTIDE8,3:R3-2:R2|PEPTIDE1,PEPTIDE7,6:R3-5:R2|PEPTIDE1,PEPTIDE3,9:R3-8:R2|PEPTIDE3,PEPTIDE5,6:R3-5:R2$$$V2.0)	8 (≈ 1.76 µM)	16	4	1 μg/mL	>64	16 (≈ 3.53 µM)	460 ± 17 (≈ 101 µM)	>64	4 (≈ 0.882 µM)	> 64	> 64	4	32	8	1–2 μg/mL	2 to 4	8	8	1 μg/mL	> 64	MIC at pH 7.4, S aureus COL [12]: > 64 μg/mL; MIC at pH 8.0, S aureus COL [12]: 2 μg/mL; MIC, S. aureus Newman [13]: >64 µg/mL; MIC, E. cloacae [14]: 8 µg/mL (≈ 1.76 µM)
CC(C)C[C@H](NC(=O)[C@H](CCCCN)NC(=O)[C@H](CCCCN)NC(=O)[C@H](CCCCNC(=O)[C@H](CC(C)C)NC(=O)[C@H](CC(C)C)NC(=O)[C@H](CCCCN)NC(=O)[C@H](CCCCNC(=O)[C@H](CC(C)C)NC(=O)[C@H](CCCCN)NC(=O)[C@H](CCCCNC(=O)[C@H](CC(C)C)NC(=O)[C@@H](N)CCCCN)NC(=O)[C@H](CC(C)C)NC(=O)[C@@H](N)CCCCN)NC(=O)[C@H](CC(C)C)NC(=O)[C@H](CCCCN)NC(=O)[C@H](CCCCNC(=O)[C@H](CC(C)C)NC(=O)[C@@H](N)CCCCN)NC(=O)[C@H](CC(C)C)NC(=O)[C@@H](N)CCCCN)NC(=O)[C@H](CC(C)C)NC(=O)[C@H](CC(C)C)NC(=O)[C@H](CCCCN)NC(=O)[C@H](CCCCNC(=O)[C@H](CC(C)C)NC(=O)[C@H](CCCCN)NC(=O)[C@H](CCCCNC(=O)[C@H](CC(C)C)NC(=O)[C@@H](N)CCCCN)NC(=O)[C@H](CC(C)C)NC(=O)[C@@H](N)CCCCN)NC(=O)[C@H](CC(C)C)NC(=O)[C@H](CCCCN)NC(=O)[C@H](CCCCNC(=O)[C@H](CC(C)C)NC(=O)[C@@H](N)CCCCN)NC(=O)[C@H](CC(C)C)NC(=O)[C@@H](N)CCCCN)C(N)=O [L-T7, reference compound] (HELM PEPTIDE1{K.L.K.K.L.K.K.L.L.K.K.K.L.[am]}|PEPTIDE2{K.L}|PEPTIDE3{K.L.K.K.L.K.K.L.L}|PEPTIDE4{K.L}|PEPTIDE5{K.L.K.K.L}|PEPTIDE6{K.L}|PEPTIDE7{K.L.K.K.L}|PEPTIDE8{K.L}$PEPTIDE1,PEPTIDE2,3:R3-2:R2|PEPTIDE3,PEPTIDE4,3:R3-2:R2|PEPTIDE5,PEPTIDE6,3:R3-2:R2|PEPTIDE7,PEPTIDE8,3:R3-2:R2|PEPTIDE1,PEPTIDE7,6:R3-5:R2|PEPTIDE1,PEPTIDE3,10:R3-9:R2|PEPTIDE3,PEPTIDE5,6:R3-5:R2$$$V2.0)	4 (≈ 0.818 µM)	16	8	2–4 μg/mL	>64	8 (≈ 1.64 µM)	70 ± 6 (≈ 14.3 µM)	16 (≈ 3.27 µM)	4 (≈ 0.818 µM)	> 64	32	8	16	4	2 μg/mL	8 (≈ 1.64 µM)	16	8	2–4 μg/mL	> 64	MIC at pH 7.4, S aureus COL [12]: > 64 μg/mL; MIC at pH 8.0, S aureus COL [12]: 4 μg/mL; MIC, S. aureus Newman [13]: >64 µg/mL; MIC, E. cloacae [14]: 8 µg/mL (≈ 1.64 µM)
